Test results: patent US20140088144A1, “INHIBITING MICROBIAL INFECTIONS” (THE UNIVERSITY OF KANSAS, priority 2012, published 2014)

How the values were obtained:
RhaS [1] = target: T1, RhaS (Escherichia coli, UniProt P09377); test: In vivo dose-response, RhaS-activated rhaB-lacZ reporter fusion (β-galactosidase); format: cell-based, E. coli; conditions: full-length RhaS, rhaB-lacZ
Source text: For dose-response studies, a rhaB-lacZ reporter strain was designed that allowed IPTG induction of RhaS or RhaS(163-278) expression from pHG165 (and thus rhaB-lacZ expression). The strain was constructed by introducing malP::lacIq into SME3000 via phage P1vir-mediated generalized transduction. First, SME3000 was transduced with Δcrp-3 zhc-511::Tn10 from SME1403, selecting for tetracycline resistance and screening for sorbitol deficiency (indicating Δcrp) using MacConkey sorbitol. SME3000 Acrp-3 zhc-511::Tn10 was transduced with crp^+ malP::lacI^q from SG22166, selecting for growth on minimal sorbitol and screening for maltose deficiency (indicating malP::lacI^q) using MacConkey maltose. Finally, SME3000 malP::lacI^q zhc-511::Tn10 was transduced with recA::cat from SME1048 by selecting for chloramphenicol resistance, to make strain SME3632.
(§1) The top hit identified in the screen was 1-ethyl-4-(nitromethyl)-3-quinolin-2-yl-4H-quinoline, Compound 2. The closely related compound, Compound 1,1-butyl-4-(nitromethyl)-3-quinolin-2-yl-4H-quinoline, was obtained from eMolecules, Inc. (Solana Beach, Calif.; catalog #3761-0013) or Princeton BioMolecular Research (Princeton, N.J.; catalog #OSSL—051168), with the Princeton named used here. […] Lysis/ONPG buffer (50 μL, as in Primary Screen) was added to each well and the plate was immediately placed into a PowerWave XS plate reader (BioTek Instruments, Inc., Winooski, Vt.), set to read the OD420 of each well every 15 min for 4 hr. […] Due to differences in kinetics of lacZ reporter expression, the rhaB-lacZ strains were analyzed at 4 hours and the hts-lacZ strain was analyzed at 1 hr. Percent activity was calculated for each condition as described above, using the single time point with appropriate OD420 levels for each strain. […] IC50 and maximal inhibition values were calculated using the XLfit add-in for Microsoft Excel (ID Business Solutions, Guildford, UK), and graphs were drawn using Prism (GraphPad, La Jolla, Calif.).

[2] = test system: LacI-repressed hts-lacZ fusion; test: LacI-repressed hts-lacZ control reporter fusion (β-galactosidase); format: cell-based, E. coli; conditions: hts-lacZ control (SME3359)
Source text: The control strain for the secondary high-throughput screen and subsequent experiments was SME3359, and carries the LacI-repressed fusion and LacI-expressing pHG165lacI. The fusion consists of lacZ under the control of an artificial promoter (Phts) with an induced expression level similar to that of the induced rhaBAD operon. Phts is regulated by Lad and induced with IPTG. The Phts core promoter elements include a near-consensus −35 sequence and a −10 sequence followed by a lacO1 operator sequence that overlaps the transcription start site with the same spacing as lacO1 at lacZYA. To construct the upstream half of Phts, oligo 2829 was annealed to oligo 2788 and the primers were extended using the Expand High Fidelity PCR System (Roche Applied Science, Indianapolis, Ind.). The downstream half of the Phts promoter was constructed by similarly annealing and extending oligos 2789 and 2790.
as §1, with “2.” for “2. The closely related compound, Compound 1,1-butyl-4-(nitromethyl)-3-quinolin-2-yl-4H-quinoline, was obtained from eMolecules, Inc. (Solana Beach, Calif.; catalog #3761-0013) or Princeton BioMolecular Research (Princeton, N.J.; catalog #OSSL—051168), with the Princeton named used here.”
In vivo dose-response assays were performed using a procedure described previously. […] Bacterial cultures were mixed with varying concentrations of SE-1 (2.2% DMSO, final), induced with 6.5 mM IPTG for 3 h at 37° C., lysed and β-galactosidase activity was measured. […] IC50 values were calculated and graphs were drawn using Prism (GraphPad, La Jolla, Calif.).

RhaS [3] = target: T1, RhaS; test: % Inhibition at 82.5 μM, RhaS; format: cell-based, E. coli
Rns = Rns (Escherichia coli, UniProt P16114); test: % Inhibition at 82.5 μM, Rns; format: cell-based, Enterotoxigenic E. coli; conditions: for inhibition at 82.5 µM: read-out: % Inhibition at 82.5 μM Rns
VirF = VirF (Shigella flexneri, UniProt P0A2T1); test: % Inhibition at 82.5 μM, VirF; format: cell-based; conditions: for inhibition at 82.5 µM: read-out: % Inhibition at 82.5 μM VirF, 82.5 μM
VirF, sequence (P0A2T1 whole entry): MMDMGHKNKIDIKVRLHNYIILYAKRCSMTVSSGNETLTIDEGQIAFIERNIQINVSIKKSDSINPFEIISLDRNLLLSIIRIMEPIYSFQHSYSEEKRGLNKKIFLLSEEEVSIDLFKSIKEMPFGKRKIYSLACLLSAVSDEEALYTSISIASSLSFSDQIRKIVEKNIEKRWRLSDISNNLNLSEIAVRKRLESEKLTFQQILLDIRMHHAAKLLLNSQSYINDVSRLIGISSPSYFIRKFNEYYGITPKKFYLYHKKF

Rns, sequence (P16114 whole entry): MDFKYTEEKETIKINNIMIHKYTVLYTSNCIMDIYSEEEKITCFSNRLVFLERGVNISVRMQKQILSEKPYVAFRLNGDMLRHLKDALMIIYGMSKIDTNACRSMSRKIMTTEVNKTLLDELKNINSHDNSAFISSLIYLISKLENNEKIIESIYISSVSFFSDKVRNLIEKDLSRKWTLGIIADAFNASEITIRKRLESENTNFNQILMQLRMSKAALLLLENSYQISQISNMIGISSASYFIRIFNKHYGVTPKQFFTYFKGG
T1 sequence (P09377 whole entry, the tested form may be a part): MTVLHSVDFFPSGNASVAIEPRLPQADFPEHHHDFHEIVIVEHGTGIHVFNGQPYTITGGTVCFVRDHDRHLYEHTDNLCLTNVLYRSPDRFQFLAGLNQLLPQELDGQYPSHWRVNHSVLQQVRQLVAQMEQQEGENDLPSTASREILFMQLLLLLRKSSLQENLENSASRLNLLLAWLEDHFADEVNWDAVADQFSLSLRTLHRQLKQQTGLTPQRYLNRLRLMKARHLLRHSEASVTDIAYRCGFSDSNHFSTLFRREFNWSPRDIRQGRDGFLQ

| Structure (SMILES) | inhibition of the RhaS-activated fusion (RhaS [1]) | inhibition of the LacI-repressed fusion [2] | inhibition at 82.5 µM (RhaS [3]) | inhibition at 82.5 µM (Rns) | inhibition at 82.5 µM (VirF) | % Inhibition at 82.5 μM RhaS (RhaS [3]) | % Inhibition at 82.5 μM Rns (Rns; 82.5 μM) | % Inhibition at 82.5 μM VirF (VirF; 82.5 μM) |
| --- | --- | --- | --- | --- | --- | --- | --- | --- |
| CCN1C=C(c2ccc3ccccc3n2)C(C[N+](=O)[O-])c2ccccc21 (centres unmarked) [Compound 2, 1-ethyl-4-(nitromethyl)-3-quinolin-2-yl-4H-quinoline] | particularly robust, dose-dependent inhibition | substantially less inhibition | 90% | 60% | 100% |  |  |  |
| CCCCN1C=C(c2ccc3ccccc3n2)C(C#N)c2ccccc21 (centres unmarked) [Compound A01] |  |  | 30% | 20% | 20% |  |  |  |
| CCN1C=C(c2ccc3ccccc3n2)C(C#N)c2ccccc21 (centres unmarked) [Compound A1] |  |  | 30% | 30% | 20% |  |  |  |
| CCOC(=O)C(C(=O)OCC)C1C(c2ccc3ccccc3n2)=CN(C)c2ccccc21 (centres unmarked) [Compound A2] |  |  | 80% | 80% | 100% |  |  |  |
| CCCCN1C=C(c2cccc(C)n2)C(C#N)c2ccccc21 (centres unmarked) [Compound A03] |  |  | 40% | 10% | 0% |  |  |  |
| CCOC(=O)CN1C=C(c2ccc3ccccc3n2)C(C[N+](=O)[O-])c2ccccc21 (centres unmarked) [Compound A3] |  |  | 0% | 30% | 10% |  |  |  |
| CCCCN1C=C(c2ccc3ccccc3n2)C(C[N+](=O)[O-])c2ccccc21 (centres unmarked) [Compound A07] |  |  | 90% | 90% | 90% |  |  |  |
| O=[N+]([O-])CC1C(c2ccc3ccccc3n2)=CN(Cc2ccc(Cl)cc2)c2ccccc21 (centres unmarked) [Compound A08] |  |  | 40% | 30% | 40% |  |  |  |
| CCCCN1C=C(c2cccc(C)n2)C(C[N+](=O)[O-])c2ccccc21 (centres unmarked) [Compound A09] |  |  | 50% | 0% | 10% |  |  |  |
| Cc1cccc(C2=CN(Cc3ccc(Cl)cc3)c3ccccc3C2C[N+](=O)[O-])n1 (centres unmarked) [Compound A10] |  |  | 30% | 0% | 10% |  |  |  |
| CCCCN1C=C(c2ccc3ccccc3n2)Cc2ccccc21 [Compound A21] |  |  | 60% | 80% | 70% |  |  |  |
| CCCCN1C=C(c2ccc3ccccc3n2)C(C)c2ccccc21 (centres unmarked) [Compound A23] |  |  | 0% | 10% | 30% |  |  |  |
| C[n+]1cc(-c2ccc3ccccc3n2)cc2ccccc21 [Compound A24] |  |  | 94% | 90% | 100% |  |  |  |
| C=CCCC[n+]1cc(-c2ccc3ccccc3n2)cc2ccccc21 [Compound A25] |  |  | 80% | 100% | 100% |  |  |  |
| CN1C=C(c2ccc3ccccc3n2)C(C#N)c2ccccc21 (centres unmarked) [Compound C4] |  |  | 70% | 80% | 90% |  |  |  |
| CN1C=C(c2ccc3ccccc3n2)C(c2c(-c3ccccc3)[nH]c3ccccc23)c2ccccc21 (centres unmarked) [Compound D2] |  |  | 10% | 10% | 40% |  |  |  |
| O=[N+]([O-])CC1C(c2ccc3ccccc3n2)=CN(Cc2ccccc2)c2ccccc21 (centres unmarked) [Compound D3] |  |  | 60% | 60% | 70% |  |  |  |
| CN1C=C(c2ccc3ccccc3n2)C(C[N+](=O)[O-])c2ccccc21 (centres unmarked) [Compound E1] |  |  | 90% | 80% | 100% |  |  |  |
| Clc1ccc(C[n+]2cc(-c3ccc4ccccc4n3)cc3ccccc32)cc1.[Br-] [Compound I01] |  |  |  |  |  | 50% | 50% | 50% |
| CCCC[n+]1cc(-c2ccc3ccccc3n2)cc2ccccc21 [Compound I02] |  |  | 90% | 90% | 90% |  |  |  |
| Clc1ccc(C[n+]2cc(-c3ccc4ccccc4n3)cc3ccccc32)cc1 [Compound I03] |  |  | 60% | 50% | 60% |  |  |  |
| CC(C)[n+]1cc(-c2ccc3ccccc3n2)cc2ccccc21 [Compound I10] |  |  | 80% | 90% | 100% |  |  |  |
| CCC[n+]1cc(-c2ccc3ccccc3n2)cc2ccccc21 [Compound I11] |  |  | 80% | 90% | 100% |  |  |  |
| CCCCCC[n+]1cc(-c2ccc3ccccc3n2)cc2ccccc21 [Compound I12] |  |  | 90% | 100% | 100% |  |  |  |
| CCCCCCCCC[n+]1cc(-c2ccc3ccccc3n2)cc2ccccc21 [Compound I13] |  |  | 100% | 100% | 100% |  |  |  |
| CCCC[n+]1cc(-c2ccc3ccccc3c2)cc2ccccc21 [Compound I14] |  |  | 90% | 100% | 100% |  |  |  |
| C[n+]1sc(Nc2ccccc2)nc1-c1ccccc1 [JS01] |  |  | 100% | 100% | 100% |  |  |  |
| C[n+]1ccccc1/C=C/c1ccc(Br)cc1 [JS03] |  |  | 20% | 10% | 50% |  |  |  |
